Assay results published in patent publication US20250108119A1, “NOVEL STEROID PAYLOADS, STEROID LINKERS, ADCs CONTAINING AND USE THEREOF” (IMMUNEXT, INC., priority 2021, published 2025).

What was measured:
[1] = test system: peritoneal resident macrophages (PRM); test: In vivo treatment/ex vivo PRM activation, TNFα and IL-6 in supernatant; set-up: species or system hVISTA mice
[2] = test system: LPS stimulated human PBMCs; test: LPS stimulated human PBMC, IL-1β and IL-6 ELISA; assay type: cell-based
In short: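 Human PBMC (1-2 healthy donors), 150,000 cells/well, treated with test agents at 1,000 nM down to 1 nM or 0.2 nM, in duplicate. LPS at 1 ng/ml added immediately after free payload or 4 h after conjugates; IL-1β and IL-6 in supernatants measured by ELISA.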

[3] = linker/payloads as anti-VISTA conjugates

In the case of `C[C@]12C=CC(=O)C=C1CC[C@@H]1[C@@H]2[C@@H](O)C[C@@]2(C)[C@H]1C[C@H]1O[C@@H](c3ccc(CC4CC5(C4)CC(NC(=O)[C@H](CCC(=O)O)NC(=O)CNC(=O)CBr)C5)cc3)O[C@]12C(=O)CO` (stereo partly drawn) [INX V, (S)-4-(2-(2-bromoacetamido)acetamido)-5-((6-(4-((6aR,6bS,7S,8aS,8bS,10R,11aR,12aS,12bS)-7-hydroxy-8b-(2-hydroxyacetyl)-6a,8a-dimethyl-4-oxo-2,4,6a,6b,7,8,8a,8b,11a,12,12a,12b-dodecahydro-1H-naphtho[2′,1′:4,5]indeno[1,2-d][1,3]dioxol-10-yl)benzyl)spiro[3.3]heptan-2-yl)amino)-5-oxopentanoic acid], the “preventing ex vivo induction of TNFα and IL-6 in PRM” value ([1]; Experiment 9: linker payloads as conjugates, 7 days post 0.2 mg/Kg of GC payload, supernatant 24h) is reported as “remarkable long-term potency in controlling cytokine responses”, the “controlling cytokine response in PRM when dosed 14 days early (conclusions)” value [1, 3] is reported as “significant potency in controlling cytokine response in PRM when dosed 14 days early” and the “potency in PRM cytokine model when dosed 7 days early (conclusions)” value [1, 3] is reported as “remarkably more potent than payloads INX P and INX R when dosed 7 days early”. For the same molecule, the “potency of conjugated linker payloads over INX J (conclusions)” value [2] was “enhanced potency”.
